In general, pKi refers to the Ki on a negative log10 scale, so that one unit is a factor of ten.

SMILES strings stand for the structures. pKi: −log10 of the molar value.

The assay deals with Carbonic anhydrase 9 (Homo sapiens, UniProt Q16790).
Description: Inhibition of human recombinant transmembrane tumor associated carbonic anhydrase-9 incubated for 15 mins prior to testing by stopped-flow CO2 hydrase assay
The compound `NS(=O)(=O)c1ccc(N(/C=C/C(=O)C(F)(F)F)Cc2ccccc2)cc1` had a pKi of 7.41.

As for `NS(=O)(=O)c1ccc(N(/C=C/C(=O)C(F)(F)F)Cc2ccc(Cl)cc2)cc1`, the pKi was 7.48.

In turn, `NS(=O)(=O)c1ccc(N(/C=C/C(=O)C(F)(F)F)CC(=O)c2ccccc2)cc1` showed a pKi of 8.02.

In turn, `NS(=O)(=O)c1ccc(N(/C=C/C(=O)C(F)(F)F)CC(=O)c2ccc(Cl)cc2)cc1` gave a negative-log Ki (pKi) of 7.77.

In the case of `NS(=O)(=O)c1ccc(N(/C=C/C(=O)C(F)(F)F)CC(=O)c2ccc(F)cc2)cc1`, the pKi is 7.89.

Compound `Cc1ccc(C(=O)CN(/C=C/C(=O)C(F)(F)F)c2ccc(S(N)(=O)=O)cc2)cc1` gave a pKi of 7.74.

`CCOC(=O)NC(=S)N(CC(=O)c1ccc(Cl)cc1)c1ccc(S(N)(=O)=O)cc1` had a pKi of 7.60.

Compound `NS(=O)(=O)c1ccc(-n2cc(-c3ccccc3)[nH]c2=O)cc1` showed a pKi of 7.47. The pKi values of the last two compounds are within 0.2 log units of each other.

For the compound `NS(=O)(=O)c1ccc(-n2cc(-c3ccc(F)cc3)[nH]c2=O)cc1`, the pKi was 7.60.

Compound `NS(=O)(=O)c1ccc(-n2cc(-c3ccccc3)[nH]c2=S)cc1` gave a pKi of 7.89.

`NS(=O)(=O)c1ccc(-n2cc(-c3ccc(F)cc3)[nH]c2=S)cc1`: the pKi was 7.43. This pKi lies 0.46 log units lower than the previous one.

The record behind these values is ChEMBL document CHEMBL3232796, “Synthesis and carbonic anhydrase I, II, IX and XII inhibition studies of 4-N,N-disubstituted sulfanilamides incorporating 4,4,4-trifluoro-3-oxo-but-1-enyl, phenacylthiourea and imidazol-2(3H)-one/thione moieties” (Bioorg Med Chem Lett, 2014).
